Species: Rattus norvegicus
Test: Open TG-GATES - Regimen: Single
Assay type: toxicity, organism-based, Sprague-Dawley
Design: regimen Single, gender Male, age 6 weeks
Conditions: in vivo, po, route gavage; for APTT / Bas / Eos / Fbg / Hb / Ht / Lym / MCH / MCHC / MCV / Mono / Neu / PT / Plat / RBC / Ret / WBC: tissue Blood; for KIDNEY_L / KIDNEY_R / KIDNEY_TOTAL: tissue Kidney; for LIVER: tissue Liver; for A/G / ALP / ALT / AST / BUN / CRE / Ca / Cl / DBIL / GLC / IP / K / LDH / Na / PL / RALB / TBIL / TC / TG / TP / gamma-GTP: tissue Plasma
[1] = 200 mg/kg, 3 h, dose level Middle
[2] = 200 mg/kg, 6 h, dose level Middle
[3] = 200 mg/kg, 9 h, dose level Middle
[4] = 200 mg/kg, 24 h, dose level Middle
[5] = 600 mg/kg, 3 h, dose level High
[6] = 600 mg/kg, 6 h, dose level High
[7] = 600 mg/kg, 9 h, dose level High
[8] = 600 mg/kg, 24 h, dose level High

CCOC(=O)[C@H](CCc1ccccc1)N[C@@H](C)C(=O)N1CCC[C@H]1C(=O)O
TERMINAL_BW [1]: 221.1 g
APTT [1]: 15.6 s
Bas [1]: 0%
Eos [1]: 1%
Fbg [1]: 207 mg/dL
Hb [1]: 13.1 g/dL
Ht [1]: 39.7%
Lym [1]: 81.6%
MCH [1]: 22.2 pg
MCHC [1]: 33.1%
MCV [1]: 67.1 fL
Mono [1]: 5%
Neu [1]: 12.4%
PT [1]: 12 s
Plat [1]: 117.9 x10_4/uL
RBC [1]: 591.2 x10_4/ul
Ret [1]: 9.1%
WBC [1]: 93.8 x10_2/uL
KIDNEY_L [1]: 1 g
KIDNEY_R [1]: 1 g
KIDNEY_TOTAL [1]: 2.1 g
LIVER [1]: 10.4 g
A/G [1]: 1.8
ALP [1]: 823.4 IU/L
ALT [1]: 45.2 IU/L
AST [1]: 67 IU/L
BUN [1]: 21.2 mg/dL
CRE [1]: 0.5 mg/dL
Ca [1]: 10.8 mg/dL
Cl [1]: 107.2 meq/L
DBIL [1]: 0.01 mg/dL
GLC [1]: 205.4 mg/dL
IP [1]: 9.1 mg/dL
K [1]: 5.5 meq/L
LDH [1]: 101.8 IU/L
Na [1]: 139 meq/L
PL [1]: 129.8 mg/dL
RALB [1]: 3.4 g/dL
TBIL [1]: 0.3 mg/dL
TC [1]: 72.2 mg/dL
TG [1]: 82 mg/dL
TP [1]: 5.3 g/dL
gamma-GTP [1]: 1.6 IU/L
TERMINAL_BW [2]: 215 g
APTT [2]: 16.6 s
Bas [2]: 0%
Eos [2]: 1%
Fbg [2]: 208.6 mg/dL
Hb [2]: 13 g/dL
Ht [2]: 39.7%
Lym [2]: 75%
MCH [2]: 21.2 pg
MCHC [2]: 32.7%
MCV [2]: 64.7 fL
Mono [2]: 9.6%
Neu [2]: 14.4%
PT [2]: 11.9 s
Plat [2]: 109.6 x10_4/uL
RBC [2]: 615.4 x10_4/ul
Ret [2]: 8.9%
WBC [2]: 113.1 x10_2/uL
KIDNEY_L [2]: 1 g
KIDNEY_R [2]: 1 g
KIDNEY_TOTAL [2]: 1.9 g
LIVER [2]: 9.8 g
A/G [2]: 2.1
ALP [2]: 770.4 IU/L
ALT [2]: 43.2 IU/L
AST [2]: 63.2 IU/L
BUN [2]: 22 mg/dL
CRE [2]: 0.5 mg/dL
Ca [2]: 11 mg/dL
Cl [2]: 105.6 meq/L
DBIL [2]: 0.022 mg/dL
GLC [2]: 195.4 mg/dL
IP [2]: 10.4 mg/dL
K [2]: 5.1 meq/L
LDH [2]: 91.6 IU/L
Na [2]: 139 meq/L
PL [2]: 144.6 mg/dL
RALB [2]: 3.6 g/dL
TBIL [2]: 0.5 mg/dL
TC [2]: 79.2 mg/dL
TG [2]: 53.8 mg/dL
TP [2]: 5.3 g/dL
gamma-GTP [2]: 1.2 IU/L
TERMINAL_BW [3]: 214.6 g
APTT [3]: 15.7 s
Bas [3]: 0%
Eos [3]: 1.2%
Fbg [3]: 207.2 mg/dL
Hb [3]: 12.8 g/dL
Ht [3]: 39.2%
Lym [3]: 71.6%
MCH [3]: 21.4 pg
MCHC [3]: 32.6%
MCV [3]: 65.4 fL
Mono [3]: 10.2%
Neu [3]: 17%
PT [3]: 12.1 s
Plat [3]: 108.6 x10_4/uL
RBC [3]: 599.4 x10_4/ul
Ret [3]: 8.8%
WBC [3]: 88.4 x10_2/uL
KIDNEY_L [3]: 1.1 g
KIDNEY_R [3]: 1 g
KIDNEY_TOTAL [3]: 2.1 g
LIVER [3]: 8.8 g
A/G [3]: 2.1
ALP [3]: 931.6 IU/L
ALT [3]: 36.2 IU/L
AST [3]: 65.8 IU/L
BUN [3]: 25.8 mg/dL
CRE [3]: 0.4 mg/dL
Ca [3]: 10.8 mg/dL
Cl [3]: 108 meq/L
DBIL [3]: 0.03 mg/dL
GLC [3]: 189.4 mg/dL
IP [3]: 10.8 mg/dL
K [3]: 5.2 meq/L
LDH [3]: 83.8 IU/L
Na [3]: 139.4 meq/L
PL [3]: 120.4 mg/dL
RALB [3]: 3.5 g/dL
TBIL [3]: 0.4 mg/dL
TC [3]: 69.4 mg/dL
TG [3]: 32.2 mg/dL
TP [3]: 5.2 g/dL
gamma-GTP [3]: 2.2 IU/L
TERMINAL_BW [4]: 230.9 g
APTT [4]: 15.8 s
Bas [4]: 0%
Eos [4]: 1.8%
Fbg [4]: 222.8 mg/dL
Hb [4]: 13 g/dL
Ht [4]: 39.2%
Lym [4]: 71.2%
MCH [4]: 21.4 pg
MCHC [4]: 33.1%
MCV [4]: 64.8 fL
Mono [4]: 8.8%
Neu [4]: 18%
PT [4]: 10.8 s
Plat [4]: 115.7 x10_4/uL
RBC [4]: 606 x10_4/ul
Ret [4]: 8.6%
WBC [4]: 90.5 x10_2/uL
KIDNEY_L [4]: 1.1 g
KIDNEY_R [4]: 1 g
KIDNEY_TOTAL [4]: 2.1 g
LIVER [4]: 11.5 g
A/G [4]: 2
ALP [4]: 915.2 IU/L
ALT [4]: 38.6 IU/L
AST [4]: 67.6 IU/L
BUN [4]: 17.6 mg/dL
CRE [4]: 0.5 mg/dL
Ca [4]: 11 mg/dL
Cl [4]: 103.2 meq/L
DBIL [4]: 0 mg/dL
GLC [4]: 198 mg/dL
IP [4]: 8.4 mg/dL
K [4]: 5 meq/L
LDH [4]: 106.4 IU/L
Na [4]: 137.8 meq/L
PL [4]: 167.4 mg/dL
RALB [4]: 3.8 g/dL
TBIL [4]: 0.5 mg/dL
TC [4]: 91 mg/dL
TG [4]: 89 mg/dL
TP [4]: 5.7 g/dL
gamma-GTP [4]: 1.8 IU/L
TERMINAL_BW [5]: 218.7 g
APTT [5]: 16.5 s
Bas [5]: 0%
Eos [5]: 1.4%
Fbg [5]: 212 mg/dL
Hb [5]: 13.3 g/dL
Ht [5]: 40.4%
Lym [5]: 74%
MCH [5]: 21.6 pg
MCHC [5]: 32.9%
MCV [5]: 65.9 fL
Mono [5]: 9.8%
Neu [5]: 14.6%
PT [5]: 12 s
Plat [5]: 109.7 x10_4/uL
RBC [5]: 614.2 x10_4/ul
Ret [5]: 8.9%
WBC [5]: 93.4 x10_2/uL
KIDNEY_L [5]: 1 g
KIDNEY_R [5]: 1 g
KIDNEY_TOTAL [5]: 1.9 g
LIVER [5]: 10 g
A/G [5]: 2
ALP [5]: 719.2 IU/L
ALT [5]: 83.4 IU/L
AST [5]: 70.2 IU/L
BUN [5]: 22.8 mg/dL
CRE [5]: 0.6 mg/dL
Ca [5]: 10.3 mg/dL
Cl [5]: 106.8 meq/L
DBIL [5]: 0.022 mg/dL
GLC [5]: 201 mg/dL
IP [5]: 9 mg/dL
K [5]: 4.9 meq/L
LDH [5]: 103.4 IU/L
Na [5]: 138.6 meq/L
PL [5]: 125.4 mg/dL
RALB [5]: 3.6 g/dL
TBIL [5]: 0.3 mg/dL
TC [5]: 73.2 mg/dL
TG [5]: 59.4 mg/dL
TP [5]: 5.4 g/dL
gamma-GTP [5]: 2.4 IU/L
TERMINAL_BW [6]: 215.5 g
APTT [6]: 16.6 s
Bas [6]: 0%
Eos [6]: 1.2%
Fbg [6]: 211.2 mg/dL
Hb [6]: 13.3 g/dL
Ht [6]: 40.9%
Lym [6]: 75.4%
MCH [6]: 21.2 pg
MCHC [6]: 32.7%
MCV [6]: 64.8 fL
Mono [6]: 7.4%
Neu [6]: 16.2%
PT [6]: 11.9 s
Plat [6]: 113.3 x10_4/uL
RBC [6]: 632.4 x10_4/ul
Ret [6]: 8.3%
WBC [6]: 96.5 x10_2/uL
KIDNEY_L [6]: 1 g
KIDNEY_R [6]: 1 g
KIDNEY_TOTAL [6]: 2 g
LIVER [6]: 9.1 g
A/G [6]: 2.2
ALP [6]: 701.6 IU/L
ALT [6]: 82.8 IU/L
AST [6]: 75.8 IU/L
BUN [6]: 28.2 mg/dL
CRE [6]: 0.6 mg/dL
Ca [6]: 10.5 mg/dL
Cl [6]: 107.2 meq/L
DBIL [6]: 0.022 mg/dL
GLC [6]: 207 mg/dL
IP [6]: 9.5 mg/dL
K [6]: 5.2 meq/L
LDH [6]: 100.8 IU/L
Na [6]: 138 meq/L
PL [6]: 126.2 mg/dL
RALB [6]: 3.6 g/dL
TBIL [6]: 0.5 mg/dL
TC [6]: 68.2 mg/dL
TG [6]: 36.8 mg/dL
TP [6]: 5.2 g/dL
gamma-GTP [6]: 1.6 IU/L
TERMINAL_BW [7]: 218.5 g
APTT [7]: 16.2 s
Bas [7]: 0%
Eos [7]: 1%
Fbg [7]: 208.8 mg/dL
Hb [7]: 12.7 g/dL
Ht [7]: 39.2%
Lym [7]: 78.6%
MCH [7]: 22.1 pg
MCHC [7]: 32.4%
MCV [7]: 68.3 fL
Mono [7]: 4.2%
Neu [7]: 16.2%
PT [7]: 11.6 s
Plat [7]: 111.9 x10_4/uL
RBC [7]: 575.2 x10_4/ul
Ret [7]: 9.9%
WBC [7]: 91.7 x10_2/uL
KIDNEY_L [7]: 1 g
KIDNEY_R [7]: 1 g
KIDNEY_TOTAL [7]: 1.9 g
LIVER [7]: 8.5 g
A/G [7]: 1.8
ALP [7]: 827.2 IU/L
ALT [7]: 56.2 IU/L
AST [7]: 65.6 IU/L
BUN [7]: 40.8 mg/dL
CRE [7]: 0.5 mg/dL
Ca [7]: 10.9 mg/dL
Cl [7]: 109 meq/L
DBIL [7]: 0.032 mg/dL
GLC [7]: 196.4 mg/dL
IP [7]: 11.1 mg/dL
K [7]: 5.8 meq/L
LDH [7]: 66 IU/L
Na [7]: 138.8 meq/L
PL [7]: 133.8 mg/dL
RALB [7]: 3.4 g/dL
TBIL [7]: 0.4 mg/dL
TC [7]: 76 mg/dL
TG [7]: 26 mg/dL
TP [7]: 5.3 g/dL
gamma-GTP [7]: 1.8 IU/L
TERMINAL_BW [8]: 231.8 g
APTT [8]: 16.2 s
Bas [8]: 0%
Eos [8]: 1.2%
Fbg [8]: 215.6 mg/dL
Hb [8]: 12.8 g/dL
Ht [8]: 38.7%
Lym [8]: 72.2%
MCH [8]: 21.6 pg
MCHC [8]: 33%
MCV [8]: 65.4 fL
Mono [8]: 13%
Neu [8]: 13.8%
PT [8]: 10.9 s
Plat [8]: 115.6 x10_4/uL
RBC [8]: 592.6 x10_4/ul
Ret [8]: 9.2%
WBC [8]: 103.4 x10_2/uL
KIDNEY_L [8]: 1 g
KIDNEY_R [8]: 1 g
KIDNEY_TOTAL [8]: 2 g
LIVER [8]: 12.5 g
A/G [8]: 2
ALP [8]: 1036 IU/L
ALT [8]: 34.4 IU/L
AST [8]: 60 IU/L
BUN [8]: 20 mg/dL
CRE [8]: 0.5 mg/dL
Ca [8]: 11.3 mg/dL
Cl [8]: 104.4 meq/L
DBIL [8]: 0 mg/dL
GLC [8]: 207.4 mg/dL
IP [8]: 8.9 mg/dL
K [8]: 4.8 meq/L
LDH [8]: 101.6 IU/L
Na [8]: 138.6 meq/L
PL [8]: 170.6 mg/dL
RALB [8]: 3.8 g/dL
TBIL [8]: 0.4 mg/dL
TC [8]: 89.6 mg/dL
TG [8]: 132.4 mg/dL
TP [8]: 5.6 g/dL
gamma-GTP [8]: 2.2 IU/L
